Measurements published in EP1608360B1, “SYNERGISTIC HEPATOPROTECTIVE COMPOSITION AND A METHOD THEREOF” (COUNCIL OF SCIENTIFIC AND INDUSTRIAL RESEARCH, priority 2003, dated 2004).
Several values for one entry are separate records, joined by “and”; a condition that tells them apart may be missing. Equal values may be shown once. Read-outs that look alike come from different tables or passages of the source.

Key:
[1] = system: paracetamol (APAP) induced hepatic injury; test: Hepatoprotective activity (in vivo) against paracetamol (APAP) induced hepatic injury in mice, prophylactic study (Table 1); settings: 50 mg/kg p.o. + APAP
Method: All the list materials were administered P.O. routes in a uniform dose level of 50 mg kg-1. Formulation is extremely safe having a therapeutic index of > 40. No mortality was recorded upto a dose of 2g-kg-1 p.o. in mice.
• Fig.1 Low Power view 10 X of bridging necroses • Fig.2 High Power view 40X of bridging necroses • Fig.3 High Power view 40X of centrilobular necrosis • Fig.4 Lower Power view 10X of centrilobular necrosis • Fig.5 Effect of paracetamol on liver when given along with high doses of hepatoprotective formulations • Fig.6 Ballooning degeneration of cells along with cytoplasmic rarefaction clearing Table 1: Hepatoprotective activity (in vivo) of synergistic formulation and Silymarin agains paracetamol (APAP) induced hepatic injury in mice2. (prophylactic study)

[2] = system: Acetaminophen (APAP) induced hepatic injury; test: Hepatoprotective activity (in vivo), pre-treatment, diethyl-ether inhalation plus Acetaminophen (APAP), prophylactic study (Table 4); design: species or system Mice: Swiss albino; settings: 50 mg/kg p.o. at 72h, 48h, 24h, 1h before diethyl-ether and 1h after APAP 200mg/kg i.p.
Method: Table-4: Hepatoprotective activity (in vivo) of TCA and silymarin (Pre-treatment) fed at 72h, 48h, 24h, 1h before inhalation of diethyl - ether and 1h after Acetaminophen (APAP) 200mg/kg given i.p. 6h after exposure to diethyl - ether (prophylactic study).

[3] = system: Paracetamol (APAP) induced hepatic injury; format: in vivo; settings: Table-2
Method: […] Formulation is extremely safe having a therapeutic index of > 40. No mortality was recorded upto a dose of 2g-kg-1 p.o. in mice.
Table-2: Hepatoprotective potential of Andrographolide (AP) against Paracetamol (APAP) induced hepatic injury in Rodents (prophylactic). […]

[4] = After 72 hrs; cited from earlier work
[5] = 6.25 mg kg^-1 + APAP, prophylactic
[6] = 12.5 mg kg^-1 + APAP, prophylactic
[7] = 25 mg kg^-1 + APAP, prophylactic
[8] = 50 mg kg^-1 + APAP, prophylactic
[9] = 50 mg kg^-1 + APAP, prophylactic, listed as Andrographolide
[10] = 50 mg kg^-1 + APAP, prophylactic, listed as andrographolide
[11] = 50 mg kg^-1 only (per se), no APAP
[12] = 100 mg kg^-1 + APAP, prophylactic

CCCCCCCC/C=C/CCCCCCCCCCCCCC(=O)O [TCA, trans-tetracos-15-enoic acid]
Hepatic Glutathione, percent hepatoprotective activity [1]: 53.15%
Hepatic Lipid peroxidation, percent hepatoprotective activity [1]: 64.15%
Serum ALP, percent hepatoprotective activity [1]: 82.35%
Serum GOT, percent hepatoprotective activity [1]: 62.00%
Serum GPT, percent hepatoprotective activity [1]: 75.00%
Serum Triglycerides, percent hepatoprotective activity [1]: 66.45%
Hepatic Lipid peroxidation [2]: 55.48 n moles MDA/g liver
Serum ALP [2]: 52.96 µ mole of p-nitrophenol formed/min/ L
Serum Bilirubin [2]: 56.35 mg %
Serum GOT [2]: 54.92 Units
Serum GPT [2]: 57.99 Units
Serum Triglycerides [2]: 66.05 mg %
Serum ALP ([2]; listed as t-tca): 52.96 µ mole of p-nitrophenol formed

C=C1CC[C@@H]2[C@](C)(CO)[C@H](O)CC[C@@]2(C)[C@@H]1C/C=C1/C(=O)OC[C@H]1O [AP, andrographolide]
Hepatic GSH (glutathione) [3, 5]: 2.85±0.19 µ mole GSH/g liver
Hepatic GSH, percent hepatoprotective activity [3, 5]: (17.40) %
Hepatic LP (lipid peroxidation) [3, 5]: 58.96±2.04 n mole MDA/g liver
Hepatic LP, percent hepatoprotective activity [3, 5]: (10.61) %
Hepatic Protein [3, 5]: 133.20±5.39 mg %
Hepatic Protein, percent hepatoprotective activity [3, 5]: (6.75) %
Serum ALP [3, 5]: 55.84±2.27 µ mole of p-nitrophenol formed /min/L
Serum ALP, percent hepatoprotective activity [3, 5]: (18.49) %
Serum Albumin [3, 5]: 3.10±0.08 g %
Serum Albumin, percent hepatoprotective activity [3, 5]: (32.84) %
Serum GOT [3, 5]: 992.69±66.36 Units
Serum GOT, percent hepatoprotective activity [3, 5]: (14.54) %
Serum GPT [3, 5]: 1224.99±63.65 Units
Serum GPT, percent hepatoprotective activity [3, 5]: (20.76) %
Serum LDH [3, 5]: 1454.48±66.02 units
Serum LDH, percent hepatoprotective activity [3, 5]: (25.45) %
Serum TG [3, 5]: 63.92±2.11 mg %
Serum TG, percent hepatoprotective activity [3, 5]: (24.17) %
Hepatic GSH (glutathione) [3, 6]: 3.78±0.19 µ mole GSH/g liver
Hepatic GSH, percent hepatoprotective activity [3, 6]: (40.19) %
Hepatic LP (lipid peroxidation) [3, 6]: 53.10±2.07 n mole MDA/g liver
Hepatic LP, percent hepatoprotective activity [3, 6]: (46.23) %
Hepatic Protein [3, 6]: 141.36±4.25 mg %
Hepatic Protein, percent hepatoprotective activity [3, 6]: (23.52) %
Serum ALP [3, 6]: 49.41±1.35 µ mole of p-nitrophenol formed /min/L
Serum ALP, percent hepatoprotective activity [3, 6]: (37.13) %
Serum Albumin [3, 6]: 3.29±0.15 g %
Serum Albumin, percent hepatoprotective activity [3, 6]: (47.02) %
Serum GOT [3, 6]: 816.54±47.10 Units
Serum GOT, percent hepatoprotective activity [3, 6]: (32.07) %
Serum GPT [3, 6]: 1051.99±46.30 Units
Serum GPT, percent hepatoprotective activity [3, 6]: (33.12) %
Serum LDH [3, 6]: 1255.65±61.32 units
Serum LDH, percent hepatoprotective activity [3, 6]: (37.14) %
Serum TG [3, 6]: 56.59±2.42 mg %
Serum TG, percent hepatoprotective activity [3, 6]: (41.39) %
Hepatic GSH (glutathione) [3, 7]: 4.15±0.15 µ mole GSH/g liver
Hepatic GSH, percent hepatoprotective activity [3, 7]: (49.26) %
Hepatic LP (lipid peroxidation) [3, 7]: 50.62±2.23 n mole MDA/g liver
Hepatic LP, percent hepatoprotective activity [3, 7]: (51.45) %
Hepatic Protein [3, 7]: 148.36±3.57 mg %
Hepatic Protein, percent hepatoprotective activity [3, 7]: (37.92) %
Serum ALP [3, 7]: 43.92±2.19 µ mole of p-nitrophenol formed /min/L
Serum ALP, percent hepatoprotective activity [3, 7]: (53.04) %
Serum Albumin [3, 7]: 3.32±0.15 g %
Serum Albumin, percent hepatoprotective activity [3, 7]: (49.25) %
Serum GOT [3, 7]: 720.76±50.62 Units
Serum GOT, percent hepatoprotective activity [3, 7]: (41.40) %
Serum GPT [3, 7]: 881.23±36.85 Units
Serum GPT, percent hepatoprotective activity [3, 7]: (45.45) %
Serum LDH [3, 7]: 1014.27±44.04 units
Serum LDH, percent hepatoprotective activity [3, 7]: (51.34) %
Serum TG [3, 7]: 51.68±2.73 mg %
Serum TG, percent hepatoprotective activity [3, 7]: (52.92) %
Hepatic GSH (glutathione) [3, 8]: 4.400±0.25 µ mole GSH/g liver
Hepatic GSH, percent hepatoprotective activity [3, 8]: (57.35) %
Hepatic LP (lipid peroxidation) [3, 8]: 47.90±1.93 n mole MDA/g liver
Hepatic LP, percent hepatoprotective activity [3, 8]: (58.35) %
Hepatic Protein [3, 8]: 155.34±3.11 mg %
Hepatic Protein, percent hepatoprotective activity [3, 8]: (52.27) %
Serum ALP [3, 8]: 40.18±2.03 µ mole of p-nitrophenol formed /min/L
Serum ALP, percent hepatoprotective activity [3, 8]: (63.88) %
Serum Albumin [3, 8]: 3.55±0.18 g %
Serum Albumin, percent hepatoprotective activity [3, 8]: (66.41) %
Serum GOT [3, 8]: 534.56±19.65 Units
Serum GOT, percent hepatoprotective activity [3, 8]: (60.14) %
Serum GPT [3, 8]: 760.73±49.35 Units
Serum GPT, percent hepatoprotective activity [3, 8]: (54.15) %
Serum LDH [3, 8]: 952.45±34.82 units
Serum LDH, percent hepatoprotective activity [3, 8]: (54.97) %
Serum TG [3, 8]: 49.22±1.78 mg %
Serum TG, percent hepatoprotective activity [3, 8]: (58.70) %
Hepatic GSH, percent hepatoprotective activity [3, 9]: 57.35%
Hepatic LP, percent hepatoprotective activity [3, 9]: 58.35%
Hepatic Protein, percent hepatoprotective activity [3, 9]: 52.27%
Serum ALP, percent hepatoprotective activity [3, 9]: 63.88%
Serum Albumin, percent hepatoprotective activity [3, 9]: 66.41%
Serum GOT, percent hepatoprotective activity [3, 9]: 60.14%
Serum GPT, percent hepatoprotective activity [3, 9]: 54.15%
Serum LDH, percent hepatoprotective activity [3, 9]: 54.97%
Serum TG, percent hepatoprotective activity [3, 9]: 58.70%
Hepatic GSH, percent hepatoprotective activity [3, 10]: 57.35%
Hepatic LP, percent hepatoprotective activity [3, 10]: 58.35% and 55.35%
Serum ALP, percent hepatoprotective activity [3, 10]: 63.88%
Serum Albumin, percent hepatoprotective activity [3, 10]: 66.41%
Serum GOT, percent hepatoprotective activity [3, 10]: 60.14%
Serum GPT, percent hepatoprotective activity [3, 10]: 54.15%
Serum LDH, percent hepatoprotective activity [3, 10]: 54.97%
Serum TG, percent hepatoprotective activity [3, 10]: 58.70%
Hepatic GSH (glutathione) [3, 11]: 6.40±0.21 µ mole GSH/g liver
Hepatic LP (lipid peroxidation) [3, 11]: 31.60±2.09 n mole MDA/g liver
Hepatic Protein [3, 11]: 182.05±10.23 mg %
Serum ALP [3, 11]: 27.72±2.71 µ mole of p-nitrophenol formed /min/L
Serum Albumin [3, 11]: 3.96±0.08 g %
Serum GOT [3, 11]: 134.92±4.25 Units
Serum GPT [3, 11]: 126.11±3.09 Units
Serum LDH [3, 11]: 181.02±10.29 units
Serum TG [3, 11]: 32.29±2.31 mg %
Hepatic GSH (glutathione) [3, 12]: 4.60±0.24 µ mole GSH/g liver
Hepatic GSH, percent hepatoprotective activity [3, 12]: (60.29) %
Hepatic LP (lipid peroxidation) [3, 12]: 45.30±2.08 n mole MDA/g liver
Hepatic LP, percent hepatoprotective activity [3, 12]: (64.95) %
Hepatic Protein [3, 12]: 146.78±5.09 mg %
Hepatic Protein, percent hepatoprotective activity [3, 12]: (34.66) %
Serum ALP [3, 12]: 44.14±2.24 µ mole of p-nitrophenol formed /min/L
Serum ALP, percent hepatoprotective activity [3, 12]: (52.40) %
Serum Albumin [3, 12]: 3.38±0.26 g %
Serum Albumin, percent hepatoprotective activity [3, 12]: (53.73) %
Serum GOT [3, 12]: 795.92±27.59 Units
Serum GOT, percent hepatoprotective activity [3, 12]: (34.12) %
Serum GPT [3, 12]: 764.37±44.32 Units
Serum GPT, percent hepatoprotective activity [3, 12]: (53.89) %
Serum LDH [3, 12]: 1256.05±33.97 units
Serum LDH, percent hepatoprotective activity [3, 12]: (37.11) %
Serum TG [3, 12]: 47.39±2.13 mg %
Serum TG, percent hepatoprotective activity [3, 12]: (63.00) %
excreted, mostly by urinary excretion [4]: ~90%
